Measured values taken from PubChem BioAssay AID2060488 (Molecular Pharmacology Branch, DTP, NCI, 2025).

Tested on: 966289-007-R4-J1-PDC complex spheroid viability
Assay: Anticancer human tumor 966289-007-R4-J1-PDC patient-derived pancreatic adenocarcinoma cell line growth inhibition [GQUAD]
Details: for IC50: curve of first compound; for viability, T/C: stronger effect = lower value
Description: DNA G-quadruplex Stabilizer Agents in Combinations in Complex Spheroids
A high-throughput screen of multi-cell type tumor spheroids was designed to identify active combinations of DNA G-quadruplex stabilizer agents and targeted small molecules. Complex spheroids include a stromal component modeled by human endothelial cells (HUVEC) and fibroblasts modeled by human mesenchymal stem cells (MSCs). The concentration ranges selected for each drug and investigational agent were based upon clinically achievable concentrations if the clinical Cmax of the agent was known.
Compounds. The drugs and investigational agents: pidnarulex (CX-5461; NSC782164), APTO-253 (NSC789042), BRACO-19 (NSC847499), peposertib (NSC802822), ceralasertib (NSC780249), elimusertib (NSC800525), camonsertib (NSC841442), AZD-1390 (NSC803789), olaparib (NSC753686), talazoparib (NSC767125), ART-558 (NSC835418), sotorasib (NSC818433), MRTX-1133 (NSC836407), SN-38 (NSC673596), topotecan (NSC609699), etoposide (NSC141540), doxorubicin (NSC123127), gemcitabine (NSC613327), 5-fluorouracil (NSC19893), paclitaxel (NSC125973), vemurafenib (NSC761431), panobinostat (NSC761190), R-306465 (JNJ-16241199; NSC773264), adavosertib (NSC754352), TP-3654 (NSC805149), carboplatin (NSC241240), KSQ-4279 (NSC840948), and staurosporine (NSC755774) were obtained from the National Cancer Institute (NCI) Developmental Therapeutics Program Chemical Repository (34). The FDA-approved anticancer drug set is available from the NCI Developmental Therapeutics Program. […] The stock solutions were prepared in dimethyl sulfoxide (DMSO, Sigma-Aldrich, St. Louis, MO, cat. D2650) at 800-fold the tested concentration and stored at -70 degrees C prior to their use. All drugs and investigational agents were tested over a range starting from a high concentration at or near the clinical Cmax and decreasing in half-log increments. If the clinical Cmax for an agent had not been determined, the highest concentration tested was 10 microM.
2.3 Cell Culture. All cells were maintained in an incubator at 37 degrees C and 5% CO2 with 95% humidity. The PDC lines were cultured according to standard operating procedures established by the NCI PDMR. All PDCs were thawed and cultured in Matrigel-coated flasks prepared with a working solution of 1X Ham's F-12 nutrient mix, without supplementation (Invitrogen, cat. 11765054), 100 U/mL penicillin-streptomycin (Invitrogen, cat. 15140122), and 2.5% Matrigel (Corning Inc., cat. 354248) for the first three passages. The 857933-349-R-J2-PDC line was cultured in 6C/Colon 1B media, which includes advanced DMEM/F-12 (Thermo Fisher Scientific, cat. 12634028), 10 mM HEPES (Thermo Fisher Scientific, cat. 15630080), 1X GlutaMAX supplement (Thermo Fisher Scientific, cat. 35050061), 0.1 mg/mL primocin (InvivoGen, cat. ant-pm-2), 10% defined fetal bovine serum, heat inactivated (HyClone Laboratories Inc., cat. SH30070.03HI), 50% L-WRN conditioned media (ATCC, cat. CRL-3276), 1.25 mM N-Acetyl-L-cysteine (Sigma-Aldrich, cat. A9165), 10 mM nicotinamide (Sigma-Aldrich, cat. N0636), 1X B-27 supplement (Thermo Fisher Scientific, cat. 17504044), 1X N-2 supplement (Thermo Fisher Scientific, cat. 17502048), 10 microM Y-27632 dihydrochloride (Tocris Bioscience, cat. 1254), and 50 ng/mL human EGF recombinant protein (Thermo Fisher Scientific, cat. PHG0311). The 485176-168-R4-J1-PDC line was cultured in Panc media, which includes all 6C/Colon 1B media components plus 100 ng/mL human FGF-10 (Thermo Fisher Scientific, cat. 100-26), 500 nM SB-431542 (Selleckchem, cat. S1067), and gastrin (Tocris, cat. 3006).
[…]

[1] = second compound 0.0316 µM, first compound 0.0316 µM
[2] = second compound 0.0316 µM, first compound 0.1 µM
[3] = second compound 0.0316 µM, first compound 0.316 µM
[4] = second compound 0.0316 µM, first compound 1 µM
[5] = second compound 0.0316 µM, first compound 3.16 µM
[6] = second compound 0.0316 µM, first compound 10 µM
[7] = second compound 0.1 µM, first compound 0.0316 µM
[8] = second compound 0.1 µM, first compound 0.1 µM
[9] = second compound 0.1 µM, first compound 0.316 µM
[10] = second compound 0.1 µM, first compound 1 µM
[11] = second compound 0.1 µM, first compound 3.16 µM
[12] = second compound 0.1 µM, first compound 10 µM
[13] = second compound 0.316 µM, first compound 0.0316 µM
[14] = second compound 0.316 µM, first compound 0.1 µM
[15] = second compound 0.316 µM, first compound 0.316 µM
[16] = second compound 0.316 µM, first compound 1 µM
[17] = second compound 0.316 µM, first compound 3.16 µM
[18] = second compound 0.316 µM, first compound 10 µM
[19] = second compound 1 µM, first compound 0.0316 µM
[20] = second compound 1 µM, first compound 0.1 µM
[21] = second compound 1 µM, first compound 0.316 µM
[22] = second compound 1 µM, first compound 1 µM
[23] = second compound 1 µM, first compound 3.16 µM
[24] = second compound 1 µM, first compound 10 µM
[25] = second compound 3.16 µM, first compound 0.0316 µM
[26] = second compound 3.16 µM, first compound 0.1 µM
[27] = second compound 3.16 µM, first compound 0.316 µM
[28] = second compound 3.16 µM, first compound 1 µM
[29] = second compound 3.16 µM, first compound 3.16 µM
[30] = second compound 3.16 µM, first compound 10 µM
[31] = second compound 10 µM, first compound 0.0316 µM
[32] = second compound 10 µM, first compound 0.1 µM
[33] = second compound 10 µM, first compound 0.316 µM
[34] = second compound 10 µM, first compound 1 µM
[35] = second compound 10 µM, first compound 3.16 µM
[36] = second compound 10 µM, first compound 10 µM
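Further: spheroids exposed to the agents for seven days before readout.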
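Wherever viability, T/C is given: percent viability relative to DMSO vehicle control wells taken as 100%.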

In the case of C=CCn1c(=O)c2cnc(Nc3ccc(N4CCN(C)CC4)cc3)nc2n1-c1cccc(C(C)(C)O)n1 + CN(C)c1ccc(Nc2c3ccc(NC(=O)CCN4CCCC4)cc3nc3cc(NC(=O)CCN4CCCC4)ccc23)cc1, the IC50 (second compound 0.0316 µM) is reported as 1.85 µM, the IC50 (second compound 0.1 µM) is reported as 1.88 µM and the IC50 (second compound 0.316 µM) is reported as 1.9 µM. The IC50 (second compound 1 µM) was 1.9 µM, the IC50 (second compound 3.16 µM) was 1.75 µM and the IC50 (second compound 10 µM) was 1.32 µM. It also gave a viability, T/C [1] of 104%, a viability, T/C [2] of 103% and a viability, T/C [3] of 113%. The viability, T/C [4] was 99.8%, the viability, T/C [5] was 6.96% and the viability, T/C [6] was 2.02%. For the same compound, the viability, T/C [7] was 99.6%, the viability, T/C [8] was 103% and the viability, T/C [9] was 111%. It also gave a viability, T/C [10] of 101%, a viability, T/C [11] of 8.04% and a viability, T/C [12] of 1.98%. It also gave a viability, T/C [13] of 96.8%, a viability, T/C [14] of 97.2% and a viability, T/C [15] of 110%. It also gave a viability, T/C [16] of 102%, a viability, T/C [17] of 8.92% and a viability, T/C [18] of 1.93%. It also gave a viability, T/C [19] of 95.3%, a viability, T/C [20] of 108% and a viability, T/C [21] of 113%. For the same compound, the viability, T/C [22] was 102%, the viability, T/C [23] was 8.33% and the viability, T/C [24] was 2.74%. It also gave a viability, T/C [25] of 104%, a viability, T/C [26] of 104% and a viability, T/C [27] of 112%. It also gave a viability, T/C [28] of 88.2%, a viability, T/C [29] of 9.59% and a viability, T/C [30] of 4.27%. The viability, T/C [31] was 105%, the viability, T/C [32] was 102% and the viability, T/C [33] was 101%. It also gave a viability, T/C [34] of 64.6%, a viability, T/C [35] of 3.41% and a viability, T/C [36] of 1.03%.

Compound CC(C)(O)C1CCC(Nc2ccc3ncc(-c4cccc(C(F)(F)F)c4)n3n2)CC1 (centres undefined) + CN(C)c1ccc(Nc2c3ccc(NC(=O)CCN4CCCC4)cc3nc3cc(NC(=O)CCN4CCCC4)ccc23)cc1 has an IC50 (second compound 0.0316 µM) greater than 10 µM, an IC50 (second compound 0.1 µM) of 2.94 µM and an IC50 (second compound 0.316 µM) of 3.08 µM. For the same compound, the IC50 (second compound 1 µM) was 2.09 µM, the IC50 (second compound 3.16 µM) was 1.83 µM and the IC50 (second compound 10 µM) was 0.668 µM. For the same compound, the viability, T/C [1] was 108%, the viability, T/C [2] was 102% and the viability, T/C [3] was 101%. The viability, T/C [4] was 95.3%, the viability, T/C [5] was 53.1% and the viability, T/C [6] was 57.9%. For the same compound, the viability, T/C [7] was 109%, the viability, T/C [8] was 101% and the viability, T/C [9] was 98.1%. For the same compound, the viability, T/C [10] was 103%, the viability, T/C [11] was 39.4% and the viability, T/C [12] was 53.4%. The viability, T/C [13] was 97.7%, the viability, T/C [14] was 100% and the viability, T/C [15] was 95.8%. It also gave a viability, T/C [16] of 110%, a viability, T/C [17] of 43.9% and a viability, T/C [18] of 53.8%. It also gave a viability, T/C [19] of 95.1%, a viability, T/C [20] of 103% and a viability, T/C [21] of 102%. The viability, T/C [22] was 97.5%, the viability, T/C [23] was 18.3% and the viability, T/C [24] was 28.3%. It also gave a viability, T/C [25] of 103%, a viability, T/C [26] of 98.7% and a viability, T/C [27] of 100%. The viability, T/C [28] was 106%, the viability, T/C [29] was 2.64% and the viability, T/C [30] was 1.96%. The viability, T/C [31] was 103%, the viability, T/C [32] was 104% and the viability, T/C [33] was 104%. For the same compound, the viability, T/C [34] was 20.9%, the viability, T/C [35] was 0.21% and the viability, T/C [36] was 0.8%.
